According to patent US11623925B2, “Processes for preparing a diaminopyrimidine derivative or acid addition salt thereof” (YUHAN CORPORATION, priority 2018, dated 2023):
Where a name gives a salt, the structure may show the parent alone.

Experiments:
[1] = Stability tests: storage at 60° C. and 75% RH for 2 weeks, HPLC analysis; type: physicochemical; conditions: for change in the HPLC purity / change in the amount of deacetylated impurities: 2 weeks, in words
Experimental: (S)-N-(1-(2-((4-amino-3-nitrophenyl)amino)-6-propylpyrimidin-4-yl)pyrrolidin-3-yl) acetamide hydrochloride prepared according to WO 2012/115480 (Amorphous form, Test compound 1) and the crystalline form A of (S)-N-(1-(2-((4-amino-3-nitrophenyl)amino)-6-propylpyrimidin-4-yl)pyrrolidin-3-yl)acetamide hydrochloride prepared in Example 7 (Test compound 2) were stored under the conditions of 60° C. and 75% RH for 2 weeks. The amounts of each test compound and the deacetylated impurities were analyzed with HPLC so as to measure the respective HPLC purities.

[2] = Storage of the amorphous hydrochloride at room temperature; type: physicochemical; conditions: stored at room temperature; in words
Experimental: In addition, WO 2012/115480 has disclosed the step for converting the compound of Formula 1 to a hydrochloride thereof. The converting step comprises reacting the compound of Formula 1 with hydrochloric acid in ethyl acetate, stirring at room temperature for 1 hour, and then filtering the product. It has been found by the present inventors that the hydrochloride of the compound of Formula 1 obtained by said method is in the amorphous form and brings about the problem producing deacetylated impurities in high level when stored at room temperature.

| change in the HPLC purity [1] | change in the amount of deacetylated impurities [1] | HPLC purities, Compound ([1]; Storage time: 1 week) [%] | HPLC purities, Deacetylated impurities ([1]; Storage time: 1 week) [%] | HPLC purities, Compound ([1]; Storage time: 2 weeks) [%] | HPLC purities, Deacetylated impurities ([1]; Storage time: 2 weeks) [%] | HPLC purities, Compound ([1]; Storage time: Initial) [%] | HPLC purities, Deacetylated impurities ([1]; Storage time: Initial) [%] | deacetylated impurities produced on storage [2] | SMILES |
| --- | --- | --- | --- | --- | --- | --- | --- | --- | --- |
| marked decrease | marked increase | 95.5 | 3.78 | 86.6 | 12.7 | 98.7 | 0.58 | high level | CCCc1cc(N2CC[C@H](NC(C)=O)C2)nc(Nc2ccc(N)c([N+](=O)[O-])c2)n1.Cl [Test compound 1, (S)-N-(1-(2-((4-amino-3-nitrophenyl)amino)-6-propylpyrimidin-4-yl)pyrrolidin-3-yl) acetamide hydrochloride] |
| no significant change | no significant change | 99.6 | 0.07 | 99.6 | 0.07 | 99.6 | 0.08 |  | CCCc1cc(N2CC[C@H](NC(C)=O)C2)nc(Nc2ccc(N)c([N+](=O)[O-])c2)n1 [Test compound 2, (S)-N-(1-(2-((4-amino-3-nitrophenyl)amino)-6-propylpyrimidin-4-yl)pyrrolidin-3-yl)acetamide hydrochloride] |
